Assay results reported in US9029396B2, “Substituted indole derivatives” (Novartis AG, priority 2011, dated 2015).
In brackets after ≈: the same amount, converted by molar mass.

Tests used:
[1] = molecular target: T1, PKC-alpha (Homo sapiens, UniProt P17252); test: Protein kinase C alpha assay (Caliper mobility shift); format: biochemical; conditions: full length human recombinant enzyme, 17 μM ATP; read-out: PKCα (IC50 in nM)
T1 construct: Both enzymes were full length human recombinant protein expressed in insect cells; purchased Invitrogen AG, Basel, Switzerland; host or cells: insect cells
Protocol: (§1) The compounds of the invention were tested for their activity on different PKC isotypes according to the following method. All assays were performed in 384 well microtiter plates. Each assay plate contained 8-point serial dilutions for 40 test compounds, as well as two 16-point serial dilutions of staurosporine as reference compound, plus 16 high- and 16 low controls. Liquid handling and incubation steps were done on a automated workstation equipped with a Innovadyne Nanodrop Express.
(§2) The assay plates were prepared by addition of 50 nL per well of compound solution in 90% DMSO. The kinase reactions were started by stepwise addition of 4.5 μl per well of a 2× peptide/ATP-solution and 4.5 μl per well of a 2× enzyme solution. The final concentration of reagents during kinase reaction were: 50 mM HEPES, pH 7.5, 1 mM DTT, 0.02% Tween20, 0.02% BSA, 0.6% DMSO, 10 mM beta-glycerophosphate, and 10 μM sodium orthovanadate. The peptide substrate used in the PKC-alpha and PKC-theta assays was Dy495-X5-ME-Mpr-RFARKGSLRQKNV-COOH. […]
(§3) Plates with terminated kinase reactions were transferred to the Caliper LC3000 workstations for reading. Phosphorylated and unphosphorylated peptides were separated using the Caliper microfluidic mobility shift technology and Kinase activities were calculated from the amounts of formed phospho-peptide.

[2] = Dog pharmacokinetics after oral administration of compound of example No. 3 (mono acetate salt); format: in vivo, Beagle dogs; conditions: blood
Protocol: Compound of Example No. 3 was administered orally as the mono acetate salt in a hard gelatine capsule to 6 fasted male Beagle dogs. A nominal dose of 100 mg/dog was given, resulting in dose of 8.9-11.3 mg/kg (weight of the dogs ranging from 8.9-11.3 kg). Blood was taken by venipuncture, and sampling was performed up to 32 h. Bioanalytic determination was performed for 3 and is tabulated below:
Key pharmacokinetic parameters (mean values or range) for compound No. 3 after oral dosing as described above.

[3] = Dog pharmacokinetics after oral administration of compound of example No. 1; format: in vivo, Beagle dogs; conditions: dog, blood
Protocol: A single dose of the compound of example 1 (3.0 mg/kg) was administered p.o. to 3 male Beagle dogs. Compound 1 was dosed as an aqueous suspension of the crystalline monohydrate form in Methylcellulose (0.5%): Tween 80 (1%) (90:10). Blood was taken in regular intervals by venipuncture, and the samples were analyzed for a period of up to 24 hours. The compounds of the examples 1, 2, and 3 were quantitatively assessed over time, and the results are tabulated below:
Key pharmacokinetic parameters (mean values±standard deviations (n=3) for 1, 2 and 3 after oral dosing of example No. 1.

[4] = Solubility in simulated gastric and intestinal fluids; format: physicochemical; conditions: Free Form
Source text: Solubility of compound Example No. 1 in simulated gastric and in simulated intestinal fluids at room temperature
Solubility of compound Example No. 3 (free form/acetate salt form) in simulated gastric fluids: […]

[5] = Stability in gastric and intestinal simulated fluids at 37° C.; format: physicochemical
Protocol: Stability Assessments Stability of Cpd. Example No. 1 in Gastric and Intestinal Simulated Fluids at 37° C.:
Stability of compound Example No. 3
(Free form/acetate salt form) in gastric and intestinal simulated fluids at 37° C.: […]

[6] = molecular target: T2, PKC-theta (Homo sapiens, UniProt Q04759); test: Protein kinase C theta assay (Caliper mobility shift); format: biochemical; conditions: full length human recombinant enzyme, 70 μM ATP; read-out: PKCθ (IC50 in nM)
T2 construct: Both enzymes were full length human recombinant protein expressed in insect cells; purchased Invitrogen AG, Basel, Switzerland; host or cells: insect cells
T2 sequence (Q04759 whole entry): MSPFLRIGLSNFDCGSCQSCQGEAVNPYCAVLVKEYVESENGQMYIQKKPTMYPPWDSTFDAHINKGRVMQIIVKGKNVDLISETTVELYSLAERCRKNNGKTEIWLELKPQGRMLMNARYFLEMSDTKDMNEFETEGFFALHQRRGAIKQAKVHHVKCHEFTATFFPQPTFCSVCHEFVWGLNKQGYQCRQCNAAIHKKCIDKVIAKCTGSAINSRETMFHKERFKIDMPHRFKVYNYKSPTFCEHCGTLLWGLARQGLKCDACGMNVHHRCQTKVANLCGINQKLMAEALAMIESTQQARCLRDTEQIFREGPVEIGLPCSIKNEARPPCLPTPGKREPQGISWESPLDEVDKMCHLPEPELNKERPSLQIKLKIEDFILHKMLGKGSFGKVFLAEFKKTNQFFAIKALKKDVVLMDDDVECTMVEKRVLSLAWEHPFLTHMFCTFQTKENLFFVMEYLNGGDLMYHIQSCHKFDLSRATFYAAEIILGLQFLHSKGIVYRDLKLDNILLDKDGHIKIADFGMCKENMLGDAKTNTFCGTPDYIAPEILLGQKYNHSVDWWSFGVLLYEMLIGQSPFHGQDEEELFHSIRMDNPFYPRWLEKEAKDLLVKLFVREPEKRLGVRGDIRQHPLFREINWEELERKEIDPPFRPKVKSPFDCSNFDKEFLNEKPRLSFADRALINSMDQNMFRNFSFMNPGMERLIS
Protocol: as §1, §2, §3

Compound: Cc1cccc2c(C3=C(c4nc(N5CCNC6(CC6)C5)cc5ccccc45)C(=O)NC3=O)c[nH]c12 [Example 3, 3-[3-(4,7-diaza-spiro[2.5]oct-7-yl)-isoquinolin-1-yl]-4-(7-methyl-1H-indol-3-yl)-pyrrole-2,5-dione]
- IC50 [1]: 0.4 nM
- concentration at 0.5 h ([2]; po, fasted male Beagle dogs, example No. 3 mono acetate salt p.o. 100 mg/dog, 0.5 h): 936 nM
- concentration at 1 h ([2]; po, fasted male Beagle dogs, example No. 3 mono acetate salt p.o. 100 mg/dog, 1 h): 2160 nM
- concentration at 2 h ([2]; po, fasted male Beagle dogs, example No. 3 mono acetate salt p.o. 100 mg/dog, 2 h): 2550 nM
- concentration at 3 h ([2]; po, fasted male Beagle dogs, example No. 3 mono acetate salt p.o. 100 mg/dog, 3 h): 2000 nM
- concentration at 4 h ([2]; po, fasted male Beagle dogs, example No. 3 mono acetate salt p.o. 100 mg/dog, 4 h): 1900 nM
- concentration at 6 h ([2]; po, fasted male Beagle dogs, example No. 3 mono acetate salt p.o. 100 mg/dog, 6 h): 1490 nM
- concentration at 8 h ([2]; po, fasted male Beagle dogs, example No. 3 mono acetate salt p.o. 100 mg/dog, 8 h): 1240 nM
- concentration at 24 h ([2]; po, fasted male Beagle dogs, example No. 3 mono acetate salt p.o. 100 mg/dog, 24 h): 276 nM
- concentration at 32 h ([2]; po, fasted male Beagle dogs, example No. 3 mono acetate salt p.o. 100 mg/dog, 32 h): 116 nM
- concentration at 0.25 h ([2]; po, fasted male Beagle dogs, example No. 3 mono acetate salt, capsule p.o. 100 mg/dog, 0.25 h): 177 nM
- Tmax ([2]; male, Beagle, dog, 100 mg, range, after oral dosing of example No. 3 mono acetate salt to dogs): 30 to 120 min
- concentration at 0.083 h ([3]; po, male Beagle dogs, example 1 3.0 mg/kg p.o. (crystalline monohydrate suspension), 0.083 h): 15 nM
- concentration at 0.25 h ([3]; po, male Beagle dogs, example 1 3.0 mg/kg p.o., 0.25 h): 167 nM
- concentration at 0.5 h ([3]; po, male Beagle dogs, example 1 3.0 mg/kg p.o., 0.5 h): 757 nM
- concentration at 0.75 h ([3]; po, male Beagle dogs, example 1 3.0 mg/kg p.o., 0.75 h): 1200 nM
- concentration at 1 h ([3]; po, male Beagle dogs, example 1 3.0 mg/kg p.o., 1 h): 1310 nM
- concentration at 2 h ([3]; po, male Beagle dogs, example 1 3.0 mg/kg p.o., 2 h): 1120 nM
- concentration at 3 h ([3]; po, male Beagle dogs, example 1 3.0 mg/kg p.o., 3 h): 959 nM
- concentration at 4 h ([3]; po, male Beagle dogs, example 1 3.0 mg/kg p.o., 4 h): 762 nM
- concentration at 7 h ([3]; po, male Beagle dogs, example 1 3.0 mg/kg p.o., 7 h): 403 nM
- concentration at 24 h ([3]; po, male Beagle dogs, example 1 3.0 mg/kg p.o., 24 h): 67.9 nM
- Tmax ([3]; male, Beagle, 3 mg/kg, mean ± SD (n=3), after oral dosing of example No. 1 to dogs): 54 ± 6 min
- solubility ([4]; FaSSIF pH 6.5): 30 µg/mL (≈ 64.7 µM)
- solubility ([4]; FeSSIF pH 5.8): 280 µg/mL (≈ 604 µM)
- solubility ([4]; simulated gastric fluid, SGF pH 2): 120 µg/mL (≈ 259 µM)
- Amount in Area % of compound example No. 3 ([5]; Acetate Salt, FaSSIF pH 6.5, 37° C., 0 hours): 100 Area %
- Amount in Area % of compound example No. 3 ([5]; Acetate Salt, FaSSIF pH 6.5, 37° C., 1 hours): 98.6 Area %
- Amount in Area % of compound example No. 3 ([5]; Acetate Salt, FaSSIF pH 6.5, 37° C., 2.5 hours): 98.7 Area %
- Amount in Area % of compound example No. 3 ([5]; Acetate Salt, FaSSIF pH 6.5, 37° C., 4 hours): 95.1 Area %
- Amount in Area % of compound example No. 3 ([5]; Acetate Salt, FaSSIF pH 6.5, 37° C., 7 hours): 88.5 Area %
- Amount in Area % of compound example No. 3 ([5]; Acetate Salt, FeSSIF pH 5.8, 37° C., 0 hours): 100 Area %
- Amount in Area % of compound example No. 3 ([5]; Acetate Salt, FeSSIF pH 5.8, 37° C., 1 hours): 99.1 Area %
- Amount in Area % of compound example No. 3 ([5]; Acetate Salt, FeSSIF pH 5.8, 37° C., 2.5 hours): 98.9 Area %
- Amount in Area % of compound example No. 3 ([5]; Acetate Salt, FeSSIF pH 5.8, 37° C., 4 hours): 98 Area %
- Amount in Area % of compound example No. 3 ([5]; Acetate Salt, FeSSIF pH 5.8, 37° C., 7 hours): 97.5 Area %
- Amount in Area % of compound example No. 3 ([5]; Acetate Salt, SGF pH 2, 37° C., 0 hours): 100 Area %
- Amount in Area % of compound example No. 3 ([5]; Acetate Salt, SGF pH 2, 37° C., 1 hours): 96.4 Area %
- Amount in Area % of compound example No. 3 ([5]; Acetate Salt, SGF pH 2, 37° C., 2.5 hours): 93.2 Area %
- Amount in Area % of compound example No. 3 ([5]; Acetate Salt, SGF pH 2, 37° C., 4 hours): 92.4 Area %
- Amount in Area % of compound example No. 3 ([5]; Acetate Salt, SGF pH 2, 37° C., 7 hours): 90.0 Area %
- Amount in Area % of compound example No. 3 ([5]; Free Form, FaSSIF pH 6.5, 37° C., 0 hours): 100 Area %
- Amount in Area % of compound example No. 3 ([5]; Free Form, FaSSIF pH 6.5, 37° C., 1 hours): 100 Area %
- Amount in Area % of compound example No. 3 ([5]; Free Form, FaSSIF pH 6.5, 37° C., 2.5 hours): 100 Area %
- Amount in Area % of compound example No. 3 ([5]; Free Form, FaSSIF pH 6.5, 37° C., 4 hours): 90.7 Area %
- Amount in Area % of compound example No. 3 ([5]; Free Form, FaSSIF pH 6.5, 37° C., 7 hours): 82.5 Area %
- Amount in Area % of compound example No. 3 ([5]; Free Form, FeSSIF pH 5.8, 37° C., 0 hours): 100 Area %
- Amount in Area % of compound example No. 3 ([5]; Free Form, FeSSIF pH 5.8, 37° C., 1 hours): 100 Area %
- Amount in Area % of compound example No. 3 ([5]; Free Form, FeSSIF pH 5.8, 37° C., 2.5 hours): 100 Area %
- Amount in Area % of compound example No. 3 ([5]; Free Form, FeSSIF pH 5.8, 37° C., 4 hours): 99.2 Area %
- Amount in Area % of compound example No. 3 ([5]; Free Form, FeSSIF pH 5.8, 37° C., 7 hours): 98.7 Area %
- Amount in Area % of compound example No. 3 ([5]; Free Form, SGF pH 2, 37° C., 0 hours): 98.8 Area %
- Amount in Area % of compound example No. 3 ([5]; Free Form, SGF pH 2, 37° C., 1 hours): 98.6 Area %
- Amount in Area % of compound example No. 3 ([5]; Free Form, SGF pH 2, 37° C., 2.5 hours): 98.1 Area %
- Amount in Area % of compound example No. 3 ([5]; Free Form, SGF pH 2, 37° C., 4 hours): 97.9 Area %
- Amount in Area % of compound example No. 3 ([5]; Free Form, SGF pH 2, 37° C., 7 hours): 97.9 Area %
- IC50 [6]: 0.2 nM
